Results: US20090186009A1, “SOLID MATTER CONTAINING COENZYME Q” (Kaneka Corporation, priority 2006, published 2009)

Assay: Crystallization rate of coenzyme Q10 in granule by differential scanning calorimetric analysis
Assay type: physicochemical
Details: DSC, calculated from melting heat (ΔH); 20° C.→80° C. (5° C./min)→−50° C.
Description: Calorimetric analysis of coenzyme Q10 granules obtained in Example 1 and Example 4 and oxidized coenzyme Q10 powder (Kaneka-coenzyme Q10) used as the starting material in Preparation Examples 1-3 by a differential scanning calorimetric analyzer (manufactured by SII; EXSTAR6000 DSC6220) was performed under the following conditions. The crystallization rate was calculated from the measurement value of the melting heat (ΔH).
Analysis conditions; 20° C.→80° C. (5° C./min)→−50° C. (−5° C./min)

## COC1=C(OC)C(=O)C(C/C=C(\C)CC/C=C(\C)CC/C=C(\C)CC/C=C(\C)CC/C=C(\C)CC/C=C(\C)CC/C=C(\C)CC/C=C(\C)CC/C=C(\C)CCC=C(C)C)=C(C)C1=O [Kaneka coenzyme Q10, oxidized coenzyme Q10]
  crystallinity degree: 100%
